US9458113B2 (Boehringer Ingelheim International GmbH, priority 2014, dated 2016)
Converted amounts (≈) assume the structure as drawn.

Assays:
[1] = molecular target: cytochrome P450 2C19 (Homo sapiens (Human), UniProt P33261); experiment: Cytochrome P450 2C19 inhibition; type: in vitro ADME; conditions: human liver microsomes, (S)-Mephenytoin hydroxylation; read-out: IC50 (CYP 2C19)
Description: Assay for Determination of Cytochrome P450 2C19 Inhibition
(§1) (I=inhibitor concentration, S=slope factor, B=background activity)

[2] = Aqueous solubility (High Throughput Method); type: physicochemical; conditions: McIlvaine buffer pH 6.8 with 2.5% DMSO, kinetic from dmso stock, McIlvaine buffer pH 6.8, 2.5% DMSO, 24 h shaking
Method: Assay for Determination of Aqueous Solubility (“High Throughput Method”)
Starting from a […] DMSO stock solution, aliquots are diluted with acetonitrile/water (1/1) and McIlvaine buffer pH 6.8, respectively. After 24 h of shaking, the solutions or suspensions are filtered and analyzed by LC-UV. The amount dissolved in buffer is compared to the amount dissolved in the acetonitrile/water (1/1) solution. Solubility is measured from 0.001 to 0.125 mg/ml at a DMSO concentration of 2.5%. If more than 90% of the compound is dissolved in buffer, the value is marked with “>”.

[3] = molecular target: cytochrome P450 2C9 (Homo sapiens (Human), UniProt P11712); experiment: Cytochrome P450 2C9 inhibition; type: in vitro ADME; conditions: human liver microsomes, Diclofenac hydroxylation; read-out: IC50 (CYP 2C9)
Description: Assay for Determination of Cytochrome P450 2C9 Inhibition
as §1

[4] = molecular target: hERG potassium channel (Homo sapiens (Human), UniProt Q12809); experiment: hERG inhibition patch clamp assay; type: cell-based; conditions: human, @ 10 μM
[5] = molecular target: hERG (human ether-a-go-go-related gene) potassium channel (Homo sapiens (Human), UniProt Q12809); experiment: hERG inhibition patch clamp assay; type: cell-based
[6] = molecular target: neutrophil elastase in zymosan-stimulated human plasma (Homo sapiens (Human), UniProt P08246); experiment: Neutrophil elastase inhibitory activity in human plasma; type: biochemical; conditions: human plasma from zymosan-stimulated blood
Method: Assay for the Determination of Neutrophil Elastase Inhibitory Activity in Human Plasma
Citrated blood from human healthy donors is mixed with zymosan suspension and incubated at room temperature. This leads to the stimulation of neutrophils and the release of neutrophil elastase into the plasma. The stimulated blood is centrifuged to generate the neutrophil elastase enriched plasma.
Various concentrations of the neutrophil elastase inhibitor are incubated with plasma. […] A dose response curve is generated to calculate the EC50 of the inhibitor.

[7] = tested on: human hepatocytes; experiment: Metabolic stability with human hepatocytes; type: in vitro ADME; conditions: 1 μM test compound, well stirred model
Method: Assay for the Determination of Metabolic Stability with Human Hepatocytes
The metabolic degradation of the test compound is assayed in a human hepatocyte suspension. Human hepatocytes (typically cryopreserved) are incubated in an appropriate buffer system (e.g. Dulbecco's modified eagle medium plus 3.5 μg glucagon/500 mL, 2.5 mg insulin/500 mL and 3.75 mg/500 mL hydrocortison) containing 5% species serum. Following a (typically) […] preincubation in an incubator (37° C., 10% CO2), 5 μl of test compound solution (80 μM; from […] stock solution in DMSO diluted 1:25 with medium) are added into 395 μl hepatocyte suspension (cell density in the range 0.25-5*10^6 cells/mL, typically 1*10^6 cells/mL; final concentration of test compound 1 μM, final DMSO concentration 0.05%). The cells are incubated for six hours (incubator, orbital shaker) and samples (25 μl) are taken at 0, 0.5, 1, 2, 4 and 6 hours. Samples are transferred into acetonitrile and pelleted by centrifugation (5 min) The supernatant is transferred to a new 96-deepwell plate, evaporated under nitrogen and resuspended. The decline of parent compound is analyzed by LC-MS/MS.
The intrinsic clearance CL_[…] is calculated as follows: CL_[…]=Dose/AUC=(C0/CD)/(AUD+clast/k)*1,000/60
(C0: initial concentration in the incubation [μM], CD: cell density of vital cells [10^6 cells/mL], AUD: area under the data [μM*h], clast: concentration of last data point [μM], k: slope of the regression line for parent decline [h^−1])
The calculated in vitro hepatic intrinsic clearance Qh can be scaled up to the intrinsic in vivo hepatic clearance and used to predict hepatic in vivo blood clearance (CL) by the use of a liver model (well stirred model): CL_[…]_INVIVO [ml/min/kg]=(CL_[…] [μL/min/10^6 cells]*hepatocellularity [10^6 cells/g liver]*liver factor [g/kg bodyweight])/1,000 CL [ml/min/kg]=CL_[…]_INVIVO [ml/min/kg]*hepatic blood flow [ml/min/kg]/(CL_[…]_INVIVO [ml/min/kg]+hepatic blood flow [ml/min/kg]) Qh [%]=CL [ml/min/kg]/hepatic blood flow [ml/min/kg])
(Hepatocellularity, human: 120*10^6 cells/g liver; liver factor, human: 25.7 g/kg bodyweight; blood flow, human: 21 ml/(min*kg))
The calculated in-vitro hepatic intrinsic clearance values of selected compounds in the metabolic stability assay with human hepatocytes described above are listed in Table 15.

[8] = Aqueous solubility (Shaked Flask Method); type: physicochemical; conditions: aqueous buffer, thermodynamic from solid, pH 6.8
Method: Assay for Determination of Aqueous Solubility (“Shaked Flask Method”)
Saturated solutions are prepared in well plates by adding an appropriate volume of selected aqueous media (typically in the range of 0.25-1.5 ml) into each well which contains a known quantity of solid drug substance (typically in the range 0.5-5.0 mg). The wells are shaken or stirred for a predefined time period (typically in a range of 2-24 h) and then filtered using appropriate filter membranes (typically PTFE-filters with 0.45 μm pore size). Filter absorption is avoided by discarding the first few drops of filtrate. The amount of dissolved drug substance is determined by UV spectroscopy or by HPLC with UV-detection. In addition, the pH of the aqueous saturated solution is measured using a glass-electrode pH meter.

neutrophil elastase in zymosan-stimulated human plasma, sequence (P08246 30-247): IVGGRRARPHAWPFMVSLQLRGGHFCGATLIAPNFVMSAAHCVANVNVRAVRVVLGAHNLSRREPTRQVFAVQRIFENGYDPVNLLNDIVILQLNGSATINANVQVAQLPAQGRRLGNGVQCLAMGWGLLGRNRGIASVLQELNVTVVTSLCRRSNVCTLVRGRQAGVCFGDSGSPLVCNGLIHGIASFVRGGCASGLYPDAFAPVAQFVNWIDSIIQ
cytochrome P450 2C9, sequence (P11712 whole entry): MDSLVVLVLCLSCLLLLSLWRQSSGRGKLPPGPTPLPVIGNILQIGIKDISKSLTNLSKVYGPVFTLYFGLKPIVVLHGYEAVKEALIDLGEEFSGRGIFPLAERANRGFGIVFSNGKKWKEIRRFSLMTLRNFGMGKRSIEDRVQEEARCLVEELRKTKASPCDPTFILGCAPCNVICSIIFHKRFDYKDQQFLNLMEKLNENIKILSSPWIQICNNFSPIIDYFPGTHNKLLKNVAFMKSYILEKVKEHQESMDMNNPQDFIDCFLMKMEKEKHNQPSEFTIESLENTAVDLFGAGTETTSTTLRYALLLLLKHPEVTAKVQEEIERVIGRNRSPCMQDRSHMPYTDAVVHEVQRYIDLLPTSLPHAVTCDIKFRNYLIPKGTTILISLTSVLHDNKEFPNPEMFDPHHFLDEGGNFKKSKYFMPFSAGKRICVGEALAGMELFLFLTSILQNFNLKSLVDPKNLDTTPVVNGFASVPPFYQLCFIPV
cytochrome P450 2C19, sequence (P33261 whole entry): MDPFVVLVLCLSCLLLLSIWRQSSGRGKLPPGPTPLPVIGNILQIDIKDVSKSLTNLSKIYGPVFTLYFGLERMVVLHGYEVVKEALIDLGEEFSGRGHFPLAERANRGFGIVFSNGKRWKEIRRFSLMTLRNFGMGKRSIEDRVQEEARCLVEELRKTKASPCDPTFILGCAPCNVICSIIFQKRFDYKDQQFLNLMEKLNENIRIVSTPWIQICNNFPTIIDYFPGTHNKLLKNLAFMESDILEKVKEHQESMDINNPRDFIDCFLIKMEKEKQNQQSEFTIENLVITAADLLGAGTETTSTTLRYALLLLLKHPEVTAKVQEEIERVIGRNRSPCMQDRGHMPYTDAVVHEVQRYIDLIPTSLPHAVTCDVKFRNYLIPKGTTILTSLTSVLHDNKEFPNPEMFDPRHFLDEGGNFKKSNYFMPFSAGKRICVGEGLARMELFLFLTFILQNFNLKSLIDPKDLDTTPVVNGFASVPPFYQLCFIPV
hERG potassium channel, sequence (Q12809 whole entry): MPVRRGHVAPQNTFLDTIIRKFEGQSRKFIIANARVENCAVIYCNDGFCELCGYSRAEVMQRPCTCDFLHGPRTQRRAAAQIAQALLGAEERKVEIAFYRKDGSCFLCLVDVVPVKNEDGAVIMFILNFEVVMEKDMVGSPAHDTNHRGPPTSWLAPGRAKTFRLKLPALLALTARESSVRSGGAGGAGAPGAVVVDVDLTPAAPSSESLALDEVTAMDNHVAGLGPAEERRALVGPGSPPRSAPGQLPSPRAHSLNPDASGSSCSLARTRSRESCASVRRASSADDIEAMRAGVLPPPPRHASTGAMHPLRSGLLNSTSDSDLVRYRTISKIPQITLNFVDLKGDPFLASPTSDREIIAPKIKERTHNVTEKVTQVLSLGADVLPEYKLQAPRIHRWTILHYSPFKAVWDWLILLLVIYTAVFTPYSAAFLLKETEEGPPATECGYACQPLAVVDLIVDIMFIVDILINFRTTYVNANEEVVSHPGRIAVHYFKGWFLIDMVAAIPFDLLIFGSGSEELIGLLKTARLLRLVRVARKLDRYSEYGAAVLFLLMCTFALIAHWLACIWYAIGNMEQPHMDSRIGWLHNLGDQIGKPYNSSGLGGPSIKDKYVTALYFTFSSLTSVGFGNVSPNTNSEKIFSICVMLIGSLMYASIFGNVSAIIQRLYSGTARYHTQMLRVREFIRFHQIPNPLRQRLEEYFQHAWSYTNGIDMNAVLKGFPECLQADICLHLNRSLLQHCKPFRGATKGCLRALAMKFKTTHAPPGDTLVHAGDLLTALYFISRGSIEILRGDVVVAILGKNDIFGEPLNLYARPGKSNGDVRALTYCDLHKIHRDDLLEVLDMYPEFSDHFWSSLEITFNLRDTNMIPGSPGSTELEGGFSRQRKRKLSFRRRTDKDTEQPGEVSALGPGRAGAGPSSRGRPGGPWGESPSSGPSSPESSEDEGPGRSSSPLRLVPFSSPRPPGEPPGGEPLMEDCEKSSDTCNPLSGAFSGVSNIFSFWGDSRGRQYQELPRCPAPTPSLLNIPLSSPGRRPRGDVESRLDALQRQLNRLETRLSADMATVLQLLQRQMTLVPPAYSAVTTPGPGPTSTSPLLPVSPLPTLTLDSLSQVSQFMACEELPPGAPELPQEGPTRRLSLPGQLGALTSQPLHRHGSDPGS
hERG (human ether-a-go-go-related gene) potassium channel, sequence (Q12809 whole entry): as above

Compound | IC50 [1] [µM] | solubility at 24 h [2] [µg/mL] | IC50 [3] [µM] | inhibition at 10 µM [4] [%] | IC50 [5] [µM] | EC50 [6] [µM] | Qh [7] [%] | solubility [8] [µg/mL]
CN1C(=O)N(c2cccc(C(F)(F)F)c2)C2=C(C(=O)CC2)[C@H]1c1ccc(C#N)cc1C(N)=O [Example 2, 5-Cyano-2-[(R)-3-methyl-2,5-dioxo-1-(3-trifluoromethyl-phenyl)-2,3,4,5,6,7-hexahydro-1H-cyclopentapyrimidin-4-yl]-benzamide] | > 50 | 84 (≈ 185 µM) | > 50 | 4 | > 30 | 0.001 | 12 | > 10
CN1C(=O)N(c2cccc(C(F)(F)F)c2)C2=C(C(=O)CC2)[C@H]1c1ccc(C#N)cc1-c1ccc(=O)n(C)c1 [Example 23, 4-[(R)-3-Methyl-2,5-dioxo-1-(3-trifluoromethyl-phenyl)-2,3,4,5,6,7-hexahydro-1H-cyclopentapyrimidin-4-yl]-3-(1-methyl-6-oxo-1,6-dihydro-pyridin-3-yl)-benzonitrile] | > 50 | 53 (≈ 102 µM) | > 50 | 5 | > 30 | 0.001 | 13 | > 10
CN1C(=O)N(c2cccc(C(F)(F)F)c2)C2=C(C(=O)CC2)[C@H]1c1ccc(C#N)cc1CNC(C)(C)C [Example 24, 3-(tert-Butylamino-methyl)-4-[(R)-3-methyl-2,5-dioxo-1-(3-trifluoromethyl-phenyl)-2,3,4,5,6,7-hexahydro-1H-cyclopentapyrimidin-4-yl]-benzonitrile] | > 50 | 48 (≈ 96.7 µM) | > 50 | 7 | > 30 | 0.007 | 10 | > 10
